Test results as given in patent US10294218B2 (VIROSTATICS SRL, priority 2012, dated 2019).
pIC50: −log10 of the molar value. Read-outs that look alike come from different tables or passages of the source.

Tests used:
Primary T cells = test: Antiproliferative activity (AP), mitotic index by flow cytometry; type: cell-based; settings: T-cell, read-out: AP50 (Inhibitory concentration 50% for antiproliferative capacity)
Method: Primary T cells are cultured and exposed to different concentrations of the test compounds. Cell proliferation is analysed by measuring mitotic index (ie the number of cell divisions a population of cells undergoes) through flow cytometry based techniques. Mitotic index is expressed as percentage of untreated control. Inhibition of cell proliferation (AP) is then calculated (AP=100 minus % mitotic index compared to control, AP of control=0%). Inhibitory concentration 50% for antiproliferative capacity (AP50) is calculated.
(§1) In Tables 2, 3 and 4, ND means Not Determined.

[1] = system: laboratory strain of HIV-1; test: Antiviral activity against HIV (AV), p24 in infected activated primary T cells; type: cell-based; settings: for pIC50: Human immunodeficiency virus 1, T-cell, read-out: AV50 (Inhibitory concentration 50% for antiviral activity); for antiviral and antiproliferative activity and cytotoxicity profile (in words): summary of AV, AP and cytotoxicity assays
Method: Activated primary T cells are infected with a laboratory strain of HIV-1, then cultured and exposed to different concentrations of the test compounds. HIV replication is analysed by measuring the viral protein p24 and expressed as percentage of untreated control. Inhibition of viral replication (AV) is then calculated (AV=100 minus the % p24 compared to control, AV of control=0%). Inhibitory concentration 50% for antiviral activity (AV50) is calculated.
as §1

SMILES | pIC50 (Primary T cells) | pIC50 (Primary T cells; primary T cells, mitotic index) | pIC50 [1] | antiviral and antiproliferative activity and cytotoxicity profile (in words) [1]
COc1ccc(Nc2cc(-c3ccccc3OC)ncn2)cc1CNCc1ccccc1 [Example 1, N-(3-((Benzylamino)methyl)-4-methoxyphenyl)-6-(2-methoxyphenyl)pyrimidin-4-amine] | 5.60 | – | – | –
COc1ccccc1-c1cc(Nc2ccc(N3CCN(C)CC3)c(Cn3cnc4ccccc43)c2)ncn1 [Example 2, N-(3-((1H-Benzo[d]imidazol-1-yl)methyl)-4-(4-methylpiperazin-1-yl)phenyl)-6-(2-methoxyphenyl)pyrimidin-4-amine] | – | 6.40 | – | –
COc1ccc(Nc2cc(-c3ccccc3OC)ncn2)cc1CNS(C)(=O)=O [Example 4, N-(2-Methoxy-5-(6-(2-methoxyphenyl)pyrimidin-4-ylamino)benzyl)methanesulfonamide] | – | 5.82 | – | –
COc1ccccc1-c1cc(Nc2ccc(Cl)c(CO)c2)ncn1 [Example 6, (2-Chloro-5-(6-(2-methoxyphenyl)pyrimidin-4-ylamino)phenyl)methanol] | – | < 6.30 | < 5.82 | –
COc1ccccc1-c1cc(Nc2ccc(Cl)c(C(=O)NN)c2)ncn1 [Example 7, 2-Chloro-5-(6-(2-methoxyphenyl)pyrimidin-4-ylamino)benzohydrazide] | – | 5.40 | – | –
COc1ccc(Nc2cc(-c3ccccc3OC)ncn2)cc1NS(C)(=O)=O [Example 9, N-(2-Methoxy-5-(6-(2-methoxyphenyl)pyrimidin-4-ylamino)phenyl)methanesulfonamide] | – | < 5.82 | > 5.82 | –
CNS(=O)(=O)Nc1cc(Nc2cc(-c3ccccc3OC)ncn2)ccc1OC [Example 10, (2-Methoxy-5-(6-(2-methoxyphenyl)pyrimidin-4-ylamino)phenyl)(methylsulfamoyl)amine] | – | 6.30 | 6.10 | good antiviral and antiproliferative activity and a good cytotoxicity profile
COc1ccccc1-c1cc(Nc2ccc(OC)c([N+](=O)[O-])c2)ncn1 [Example 11, N-(4-Methoxy-3-nitrophenyl)-6-(2-methoxyphenyl)pyrimidin-4-amine] | – | < 5.82 | – | –
COc1ccccc1-c1cc(Nc2ccc(O)c([N+](=O)[O-])c2)ncn1 [Example 12, 4-(6-(2-methoxyphenyl)pyrimidin-4-ylamino)-2-nitrophenol] | – | < 5.82 | – | –
COc1ccc(Nc2cc(-c3ccccc3OC)ncn2)cc1NS(=O)(=O)NC1CCCCC1 [Example 13, (2-Methoxy-5-(6-(2-methoxyphenyl)pyrimidin-4-ylamino)phenyl) (cyclohexylsulfamoyl)amine] | – | 6.22 | 6.52 | good antiviral and antiproliferative activity and a good cytotoxicity profile
CCOC(=O)c1cc(Nc2cc(-c3ccccc3OC)ncn2)ccc1Cl [Example 14, Ethyl 2-chloro-5-(6-(2-methoxyphenyl)pyrimidin-4-ylamino)benzoate] | – | < 6.30 | – | –
COc1ccccc1-c1cc(Nc2ccc(Cl)c(C(=O)N3CCCC3)c2)ncn1 [Example 15, (2-Chloro-5-(6-(2-methoxyphenyl)pyrimidin-4-ylamino)phenyl)(pyrrolidin-1-yl)methanone] | – | < 6.30 | – | –
COc1ccccc1-c1cc(Nc2ccc(Cl)c(Cn3cnc4ccccc43)c2)ncn1 [Example 16, N-(3-((1H-benzo[d]imidazol-1-yl)methyl)-4-chlorophenyl)-6-(2-methoxyphenyl)pyrimidin-4-amine] | 7.00 | – | 6.96 | good antiviral and antiproliferative activity and a good cytotoxicity profile
COc1ccccc1-c1cc(Nc2ccc(N3CCN(C)CC3)c(CO)c2)ncn1 [Example 17] | – | 6.46 | < 5.82 | –
CCOC(=O)c1cc(Nc2cc(-c3ccccc3OC)ncn2)ccc1N1CCOCC1 [Example 18, Ethyl 5-(6-(2-methoxyphenyl)pyrimidin-4-ylamino)-2-morpholinobenzoate] | – | < 6.30 | < 5.82 | –
COc1ccccc1-c1cc(Nc2ccc(N3CCOCC3)c(CO)c2)ncn1 [Example 19, (5-(6-(2-Methoxyphenyl)pyrimidin-4-ylamino)-2-morpholinophenyl)methanol] | – | < 6.30 | 6.00 | –
COC(=O)c1cc(Nc2cc(-c3ccccc3OC)ncn2)ccc1O [Example 21, Methyl 2-hydroxy-5-(6-(2-methoxyphenyl)pyrimidin-4-ylamino)benzoate] | – | < 6.30 | > 5.82 | –
COc1ccc(Nc2cc(-c3ccccc3OC)ncn2)cc1F [Example 22, N-(3-Fluoro-4-methoxyphenyl)-6-(2-methoxyphenyl)pyrimidin-4-amine] | – | < 6.30 | > 5.82 | –

SMILES | pIC50 (Primary T cells) | pIC50 (Primary T cells; primary T cells, mitotic index) | pIC50 [1] | antiviral and antiproliferative activity and cytotoxicity profile (in words) [1]
COc1ccc(Nc2cc(-c3ccccc3OC)ncn2)cc1C(=O)NCc1ccccc1 [Example 23, N-Benzyl-2-methoxy-5-(6-(2-methoxyphenyl)pyrimidin-4-ylamino)benzamide] | < 6.30 | – | < 6.30 | –
COc1ccc(Nc2cc(-c3ccccc3OC)ncn2)cc1CO [Example 24, (2-Methoxy-5-(6-(2-methoxyphenyl)pyrimidin-4-ylamino)phenyl)methanol] | < 6.30 | – | < 6.30 | –
CNC(=O)c1cc(Nc2cc(-c3ccccc3OC)ncn2)ccc1OC [Example 25, 2-Methoxy-5-(6-(2-methoxyphenyl)pyrimidin-4-ylamino)-N-methylbenzamide] | < 6.30 | – | < 6.30 | –
COc1ccc(Nc2cc(-c3ccccc3OC)ncn2)cc1C(=O)NN [Example 33, 2-Methoxy-5-(6-(2-methoxyphenyl)pyrimidin-4-ylamino)benzohydrazide] | 5.70 | – | – | –
COc1ccc(Nc2cc(-c3ccccc3OC)ncn2)cc1CNc1ccccc1 [Example 34, N-(4-Methoxy-3-((phenylamino)methyl)phenyl)-6-(2-methoxyphenyl)pyrimidin-4-amine] | < 5.30 | – | – | –
COc1ccccc1-c1cc(Nc2ccc(N(C)C)c(Cn3cnc4ccccc43)c2)ncn1 [Example 42, 2-((1H-Benzo[d]imidazol-1-yl)methyl)-N4-(6-(2-methoxyphenyl)pyrimidin-4-yl)-N1,N1-dimethylbenzene-1,4-diamine] | 5.74 | – | – | –
COc1ccccc1-c1cc(Nc2ccc(Cl)c(C(N)=O)c2)ncn1 [Example 44, 2-Chloro-5-(6-(2-methoxyphenyl)pyrimidin-4-ylamino)benzamide] | – | 5.30 | – | –
COc1ccc(Nc2cc(-c3ccc(F)cc3OC)ncn2)cc1O [Example 123, 5-[6-(4-Fluoro-2-methoxy-phenyl)-pyrimidin-4-ylamino]-2-methoxy-phenol] | – | – | 7.30 | good antiviral and antiproliferative activity and a good cytotoxicity profile
CCOc1cc(F)ccc1-c1cc(Nc2ccc(OC)c(C(N)=O)c2)ncn1 [Example 130, 5-[6-(2-Ethoxy-4-fluoro-phenyl)-pyrimidin-4-ylamino]-2-methoxy-benzamide] | – | – | 7.80 | good antiviral and antiproliferative activity and a good cytotoxicity profile
CCOc1ccc(F)cc1-c1cc(Nc2ccc(OC)c(C(N)=O)c2)ncn1 [Example 131, 5-[6-(2-Ethoxy-5-fluoro-phenyl)-pyrimidin-4-ylamino]-2-methoxy-benzamide] | – | – | > 7.10 | good antiviral and antiproliferative activity and a good cytotoxicity profile
COc1ccccc1-c1cc(Nc2ccc(C(N)=O)c(Cl)c2)ncn1 [Example 132, 2-Chloro-4-[6-(2-methoxy-phenyl)-pyrimidin-4-ylamino]-benzamide] | – | – | 5.30 | –
COC(=O)c1ccc(Nc2cc(-c3ccccc3OC)ncn2)cc1OC [Example 133, 2-Methoxy-4-[6-(2-methoxy-phenyl)-pyrimidin-4-ylamino]-benzoic Acid Methyl Ester] | – | – | 5.15 | –
COc1ccccc1-c1cc(Nc2cc(F)c(OC)c(C(N)=O)c2)ncn1 [Example 137, 3-Fluoro-2-methoxy-5-[6-(2-methoxy-phenyl)-pyrimidin-4-ylamino]-benzamide] | – | – | < 5.70 | –
COc1cc(F)ccc1-c1cc(Nc2cc(F)c(OC)c(C(N)=O)c2)ncn1 [Example 138, 3-Fluoro-5-[6-(4-fluoro-2-methoxy-phenyl)-pyrimidin-4-ylamino]-2-methoxy-benzamide] | – | – | < 6.40 | –
CCOc1cc(F)ccc1-c1cc(Nc2cc(F)c(OC)c(C(N)=O)c2)ncn1 [Example 139, 5-[6-(2-Ethoxy-4-fluoro-phenyl)-pyrimidin-4-ylamino]-3-fluoro-2-methoxy-benzamide] | – | – | 6.40 | –
COc1ccc(F)cc1-c1cc(Nc2cc(F)c(OC)c(C(N)=O)c2)ncn1 [Example 140, 3-Fluoro-5-[6-(5-fluoro-2-methoxy-phenyl)-pyrimidin-4-ylamino]-2-methoxy-benzamide] | – | – | < 6.40 | –
CCOc1ccccc1-c1cc(Nc2cc(F)c(OC)c(C(N)=O)c2)ncn1 [Example 141, 5-[6-(2-Ethoxy-phenyl)-pyrimidin-4-ylamino]-3-fluoro-2-methoxy-benzamide] | – | – | 7.10 | good antiviral and antiproliferative activity and a good cytotoxicity profile
CCOc1ccc(F)cc1-c1cc(Nc2cc(C(N)=O)c(OC)cc2F)ncn1 [Example 148, 5-[6-(2-Ethoxy-5-fluoro-phenyl)-pyrimidin-4-ylamino]-4-fluoro-2-methoxy-benzamide] | – | – | > 7.10 | –
